Laboratory results: US20090239846A1, “Novel Compounds” (Glaxo Group Limited, priority 2005, published 2009)

With `Cc1ccc(C(=O)NCc2ccccc2)cc1-c1nc(N2CCC(N(C)C(=O)OC(C)(C)C)CC2)nc2c1CNC(=O)N2c1c(F)cccc1F` [Example 147, 1,1-dimethylethyl {1-[8-(2,6-difluorophenyl)-4-(2-methyl-5-{[(phenylmethyl)amino]carbonyl}phenyl)-7-oxo-5,6,7,8-tetrahydropyrimido[4,5-d]pyrimidin-2-yl]-4-piperidinyl}methylcarbamate] the melting point was 146 to 150 °C (dec.).
With `CNC(=O)c1ccc(C)c(-c2nc(NCCCNC(C)C)nc3c2CNC(=O)N3c2c(F)cccc2F)c1` [Example 168, 3-[8-(2,6-difluorophenyl)-2-({3-[(1-methylethyl)amino]propyl}amino)-7-oxo-5,6,7,8-tetrahydropyrimido[4,5-d]pyrimidin-4-yl]-N,4-dimethylbenzamide] the melting point was 153 to 157 °C (dec.).
For `Cc1ccc(C(=O)NCc2ccccc2)cc1-c1nc(NC2CC(C)(C)NC(C)(C)C2)nc2c1CNC(=O)N2c1c(F)cccc1F` [Example 16, 3-{8-(2,6-Difluorophenyl)-7-oxo-2-[(2,2,6,6-tetramethyl-4-piperidinyl)amino]-5,6,7,8-tetrahydropyrimido[4,5-d]pyrimidin-4-yl}-4-methyl-N-(phenylmethyl)benzamide], the melting point was 160 to 165 °C (dec.).
With `CNc1nc(-c2cc(NC(=O)c3ccsc3)ccc2C)c2c(n1)N(c1c(F)cccc1F)C(=O)NC2` [Example 14, N-{3-[8-(2,6-difluorophenyl)-2-(methylamino)-7-oxo-5,6,7,8-tetrahydropyrimido[4,5-d]pyrimidin-4-yl]-4-methylphenyl}-3-thiophenecarboxamide] the melting point was 203 to 207 °C (dec.).
In the case of `CCCCN(CCCC)CCCNc1nc(-c2cc(C(=O)NC)ccc2C)c2c(n1)N(c1c(F)cccc1F)C(=O)NC2` [Example 171, 3-[2-{[3-(dibutylamino)propyl]amino}-8-(2,6-difluorophenyl)-7-oxo-5,6,7,8-tetrahydropyrimido[4,5-d]pyrimidin-4-yl]-N,4-dimethylbenzamide], the melting point is reported as 112 to 115 °C.
With `CCOc1nc(-c2cc(NC(=O)c3ccsc3)ccc2C)c2c(n1)N(c1c(F)cccc1F)C(=O)NC2` [Example 13] the melting point was 199 to 202 °C (dec.).
For `CNC(=O)c1ccc(C)c(-c2nc(N3CCN(C)CC3)nc3c2CNC(=O)N3c2c(F)cccc2F)c1` [Example 169, 3-[8-(2,6-difluorophenyl)-2-(4-methyl-1-piperazinyl)-7-oxo-5,6,7,8-tetrahydropyrimido[4,5-d]pyrimidin-4-yl]-N,4-dimethylbenzamide], the melting point was 164 to 168 °C (dec.).
Work on `Cc1ccc(NC(=O)c2ccsc2)cc1-c1nc(N(C)C)nc2c1CNC(=O)N2c1c(F)cccc1F` [Example 12, N-{3-[8-(2,6-difluorophenyl)-2-(dimethylamino)-7-oxo-5,6,7,8-tetrahydropyrimido[4,5-d]pyrimidin-4-yl]-4-methylphenyl}-3-thiophenecarboxamide] yielded a melting point of 214 to 215 °C.
In the case of `CNC(=O)c1ccc(C)c(-c2nc(NCCCNC(C)(C)C)nc3c2CNC(=O)N3c2c(F)cccc2F)c1` [Example 170, 3-[8-(2,6-difluorophenyl)-2-({3-[(1,1-dimethylethyl)amino]propyl}amino)-7-oxo-5,6,7,8-tetrahydropyrimido[4,5-d]pyrimidin-4-yl]-N,4-dimethylbenzamide], the melting point is reported as 166 to 170 °C (dec.).
With `CNC(=O)c1ccc(C)c(-c2nc(NCCNC(C)C)nc3c2CNC(=O)N3c2c(F)cccc2F)c1` [Example 167, 3-[8-(2,6-difluorophenyl)-2-({2-[(1-methylethyl)amino]ethyl}amino)-7-oxo-5,6,7,8-tetrahydropyrimido[4,5-d]-pyrimidin-4-yl]-N,4-dimethylbenzamide] the melting point was 136 to 139 °C (dec.).
`CCOc1nc(-c2cc(NC(=O)c3ccc(C)c(F)c3)ccc2C)c2c(n1)N(c1c(F)cccc1F)C(=O)NC2` [Example 25] showed a melting point of 257.3 to 262.5 °C.
